The record followed here is patent US20250382583A1, “ENHANCED METHODS FOR INDUCING AND MAINTAINING NAIVE HUMAN PLURIPOTENT STEM CELLS” (Washington University, priority 2021, published 2025).

Holding throughout (assay type): cell-based, human
One test relates to H9 hESCs. Nature of the test: Primed-to-naïve reprogramming, colony morphology and colony numbers (imaging, AP staining). Conditions: for morphological appearance of naïve hESCs on individual addition to PXGGY/A: 20 ng/ml LIF, 0.5 μM IM12 or 0.5 μM WH-04, P2. The procedure: (§1) […]: For primed-to-naïve resetting experiments, primed hESCs were dissociated into single cells using TrypLE Express (GIBCO, 12604), washed in fibroblast medium [DMEM (Millipore Sigma, #SLM-021-B) supplemented with 10% FBS (HyClone, SH30396.03, 1×GlutaMAX (GIBCO, 35050), and 1% penicillin-streptomycin (GIBCO, 15140)] and 2×10^5 single primed hESCs were seeded on mitomycin C-inactivated mouse embryonic fibroblast (MEF) feeder cells coated 6 well plates in 3-4 mL mTeSR1 supplemented with 10 μM Y-27632. Two days later, medium was switched to either 5i/L/A or experimental induction media and maintained for 10-12 days. Cells at this stage were considered at passage zero. Cells were then split in a 1:2 or 1:3 ratio every 4-6 days as single cells using Accutase (Thermo Fischer Scientific, A1110501). PXGGY media were prepared in serum-free N2B27 media supplemented with 1 μM PD0325901, 2 μM XAV939, 2 μM Gö6938, 2.5 μM GDC-0994, and 10 μM Y-27632. PXGGY/A media were prepared in PXGGY supplemented with 10 ng/ml Activin A. During these assays cells were fed with fresh media every second day and cultured in 5% O2, 5% CO2 at 37° C. Detailed information on the conditions used for defining alternative naïve induction media can be found in Tables 1-6.
(§2) Alkaline phosphatase (AP) staining: AP staining was performed following the manufacturer's instructions using the Leukocyte Alkaline Phosphatase Kit (Sigma, 86R, 1KT). For AP staining cells were seeded at equal density in 6-well plates and passaged in the same ratio for all conditions. Post-staining cells were allowed to dry overnight in the dark and scanned using HP Color Laser Jet Managed printer/scanner (MFP E67650).
(§3) Imaging: The imaging of H9 and WIBR3 hESCs was performed in live conditions within culture media. For WIBR3 MECP2-GFP/tdTomato hESCs the medium was aspirated, cell were washed twice with PBS, and imaged in 1 mL of PBS. All images were captured at 10× magnification on a Leica DMi8 microscope.
Example 1 establishes the PXGGY/A cocktail enables efficient primed-to-naïve reprogramming, homogenous induction of naïve-specific cell surface markers CD75 and SUSD2, and homogenous X-chromosome reactivation. […] To address this, the impact of ROCK inhibitor Y-27632 titration was first assessed when used continuously or transiently for only 24 hours at the time of passaging during primed-to-naïve reprogramming (FIG. 9A and FIG. 9B). […] The PXGGY/A composition from hereon will be denoted as PXGGY/A to specify transient use of ROCKi.
However, the morphology of naïve hESCs reprogrammed using this condition still appeared flat compared to the characteristic dome-shaped colony morphology associated with naïve pluripotency. […]

Test [1] deals with WIBR3 OCT4-ΔPE-GFP+naïve hESCs. Nature of the test: High-throughput chemical screening in absence of 2i, OCT4-ΔPE-GFP reporter, high-content imaging. As to conditions: N2B27/Y. The procedure: High-throughput chemical screening: For high-throughput screening, WIBR3 OCT4-ΔPE-GFP+naïve hESCs generated with inducible KLF2 and NANOG transgenes were used, as described previously. These cells were maintained in 1 μM PD0325901, 1 µM CHIR99021, and 2 μg/ml DOX (Sigma) (2i/DOX). For compound screening in presence of 2i/Y, 3,000 OCT4-ΔPE-GFP+naïve hESCs were seeded per well in vitronectin-coated 384 well plates in serum-free N2B27 media supplemented with 1 μM PD0325901, 1 μM CHIR99021, and 10 μM Y-27632. The next day individual compounds from the Novartis Mechanism of Action (MoA) library were applied at two concentrations (2.5 μM and 5 μM) in duplicate using an Echo 550 Acoustic Liquid Handler (Labcyte), and compounds were refreshed on day 4. Images were analyzed on day 5 post-DOX withdrawal using a Yokogawa Cell Voyager 7000 High-Content Imaging System in confocal mode using a 10× dry (NA=0.45) objective lens using four fields per well that provided for full well coverage. While the screen was performed at two concentrations (2.5 μM and 5 μM), the lower concentration yielded few additional hits. Hit compounds were validated in 384 well plates across an 8-point concentration range in duplicates. […] Images were acquired using the Yokogawa Cell Voyager 7000 on day 7 and analyzed as described above. […]

The test system of test [2] is H9-naïve hESCs. Briefly: Extended maintenance assay, flow cytometry for naïve-specific CD75 and SUSD2. Conditions: serum-free media supplemented with XGY, 2.5 μM compound. The procedure: (§4) Defining alternative naïve maintenance media: To define the activity of selected hit compounds during extended naïve culture, naïve hESCs derived from the primed state and maintained in 5i/L/A were dissociated with Accutase (Thermo Fischer Scientific, A1110501) and 1.5×10^5 single cells were seeded in 5i/L/A media on MEF-coated plates. After 24 hours, 5i/L/A media were switched to experimental maintenance conditions to validate hits from the screen. After 4-6 days the cells were split in a 1:2 or 1:3 ratio and further maintained for 4-6 days before analysis by FACS, qRT-PCR, AP staining, and/or RNA-seq. 5i/L/A media in which the MEK inhibitor PD0325901 was replaced with 5 μM AZ628 are represented as alternative 5i/L/A (a5i/L/A). FXGY, AXGY, AXGYU, PXGY, and GXGY media were prepared in serum-free N2B27 media supplemented with 1 μM PD166866, 5 μM AZ628, 5 μM AZ628 and 1 μM UNC0638, 1 μM PD0325901, and 5 μM GDC-0994, respectively, together with 2 μM XAV939, 2 μM Gö6983, and 10 μM Y-27632. During these assays cells were fed with fresh media every second day and cultured in 5% O2, 5% CO2 at 37° C. Detailed information on conditions used for defining alternative naïve maintenance media can be found in Tables 1-6.
Flow cytometry: Primed hESCs were single-cell dissociated using TrypLE Express, while Accutase was used for naïve hESCs. Cells were resuspended in fibroblast medium and centrifuged. Cell pellets were washed in 5 mL ice-cold PBS. The cells were then resuspended in […] fresh ice-cold FACS buffer (PBS supplemented with 5% FBS), and incubated with antibodies for 30 minutes on ice in the dark. The following antibodies were used: anti-SUSD2-PE (1:100), anti-CD75-eFluor 660 (1:100), anti-CD90-PE (1:100), anti-ITGA6-FITC (1:100) and EGFR-APC (1:25). Post-incubation the cells were washed once with 1 mL ice-cold PBS, resuspended in fresh 500 μl FACS buffer, and passed through a […] cell strainer into round bottom FACS tubes (Corning, #352235). Flow cytometry was performed using a BD LSRFortessa X-20 and the data were analyzed using the FlowJo software.
On the technique in general: A flow cytometer gives signals particle by particle.

The subject of test [3] is WIBR3 OCT4-ΔPE-GFP+-naïve hESCs. Nature of the test: Extended maintenance assay, OCT4-ΔPE-GFP reporter activity (imaging, qRT-PCR). As to conditions: for activity in maintaining OCT4-ΔPE-GFP reporter activity after passaging: 2.5 and 5 μM, two passages. The protocol:
as §4
(§5) Quantitative reverse transcriptase PCR (qRT-PCR): Total RNA was isolated using the E.Z.N.A. total RNA kit I and cDNA synthesis was performed from total RNA using the high-capacity cDNA reverse transcription kit (Applied Biosystems, 4368814). qRT-PCR was performed using PowerUp SYBR Green Master Mix (Applied Biosystems, A25743) on the StepOnePlus Real-Time PCR System (Applied Biosystems). Gene expression was normalized to RPLP0 and analyzed using the ΔCt method. Error bars represent the standard deviation (SD) of the mean of technical replicates.
For this purpose, WIBR3 OCT4-ΔPE-GFP+-naïve hESCs that were generated in the absence of reprogramming transgenes were used using the 5i/L/A cocktail. […] Compounds were tested at two different concentrations (2.5 and 5 μM), and cells were maintained for two passages (FIG. 2A).
On the technique in general: In qPCR the cycle at which signal appears reflects the starting amount.

The next test relates to naïve hESCs. Briefly: Colony morphology, proliferation and colony formation (phase contrast, AP staining) during naïve maintenance. The procedure: as §4, §2, §3
Test [4] deals with H9-naïve hESCs. Nature of the test: qRT-PCR for naïve-specific transcripts (KLF17, DNMT3L) during naïve maintenance. The protocol: as §4, §5
A further test deals with H9 primed hESCs. Briefly: Primed-to-naïve resetting, flow cytometry for CD75 and SUSD2. The procedure:
as §1, with “PXGGY/A media were prepared in PXGGY supplemented with 10 ng/ml Activin A. During these assays cells were fed with fresh media every second day and cultured in 5% O2, 5% CO2 at 37° C. Detailed information on the conditions used for defining alternative naïve induction media can be found in Tables 1-6.” left out
Flow cytometry: Primed hESCs were single-cell dissociated using TrypLE Express, while Accutase was used for naïve hESCs. […] Flow cytometry was performed using a BD LSRFortessa X-20 and the data were analyzed using the FlowJo software.

With `COc1ccc(N(C(=O)Oc2c(C)cccc2C)c2ccnc(Nc3ccc(N4CCN(C)CC4)cc3)n2)c(OC)c1` [WH-4-023], the “morphological appearance of naïve hESCs on individual addition to PXGGY/A” value (“morphological appearance of naïve hESCs” for short) in the test on H9 hESCs is reported as “did not result in a major improvement”.

With `Oc1nc(-c2ccc(C(F)(F)F)cc2)nc2c1CSCC2` [XAV939], the “colony size and OCT4-ΔPE-GFP signal compared to inhibition of MEK1” value in test [1] is given as “larger colonies but a slightly dimmer OCT4-ΔPE-GFP signal”. The “increase in GFP activity (OCT4-ΔPE-GFP)” value in test [1] (validation assays, absence of 2i) is “particularly strong effect”.

Regarding `Cc1ccc(NC(=O)c2cccc(C(C)(C)C#N)c2)cc1Nc1ccc2ncn(C)c(=O)c2c1` [AZ628], the “sustaining CD75/SUSD2-positive cells over multiple passages” value in the test on H9-naïve hESCs [2] is reported as “robustly sustained”. The “activity in maintaining OCT4-ΔPE-GFP reporter activity after passaging” value in test [3] (in Go/Y) and in test [3] (in XAV/Y) was “showed activity” each time. For the same compound, the “expansion of OCT4-ΔPE-GFP+ cells” value in test [3] (in the presence of either XAV or Go) was “robust expansion”.

On to `Cc1[nH]c2ccccc2c1C1=C(NCCc2ccc(F)cc2)C(=O)N(C)C1=O` [IM12], for which the “morphological appearance of naïve hESCs” value in the test with H9 hESCs was “did not result in a major improvement”.

For “LIF: leukemia inhibitory factor, recombinant human cytokine”, in the test with H9 hESCs, the “morphological appearance of naïve hESCs” value is given as “did not result in a major improvement”.

On to `COc1cc2c(NC3CCN(C(C)C)CC3)nc(C3CCCCC3)nc2cc1OCCCN1CCCC1` [UNC0638], for which the “colony proliferation compared to AXGY” value in the test on naïve hESCs (added to AXGY) was “slightly reduced”. The “KLF17 expression upon addition to the AXGY cocktail” value with H9-naïve hESCs [4] (added to AXGY) is “further stimulated”.

With `CC(C)(C)n1nc(-c2cccc3ccccc23)c2c(N)ncnc21` [Naphtol-PP1], the “colony morphology upon addition to the AXGY cocktail” value in the test with naïve hESCs (added to AXGY) is “enhanced dome-shaped colony morphology”.

Take `C/C(=N\NC(=N)N)c1cc(NC(=O)CCCCCCCCC(=O)Nc2cc(/C(C)=N/NC(=N)N)cc(/C(C)=N/NC(=N)N)c2)cc(/C(C)=N/NC(=N)N)c1` [Semapimod]: the “proliferation of double-positive cells” value in the test on naïve hESCs (serum-free media supplemented with XGY) is on record as “very limited proliferation”. Further, the “sustaining CD75/SUSD2-positive cells over multiple passages” value in the test on H9-naïve hESCs [2] is given as “some double-positive cells”.

Regarding `C[C@@H](N)[C@H]1CC[C@H](C(=O)Nc2ccncc2)CC1` [Y-27632], the “CD75+/SUSD2+ cell proportion” value in the test with H9 primed hESCs (transient application of 10 μM in PXGGY/A, P1) is “without any significant reduction”. In the test with H9 hESCs (transient application (24 hours at passaging) of 10 μM in PXGGY/A), the “morphology of reprogrammed naïve hESCs” value is “improves the morphology”.

Turning to `COc1cc(OC)cc(-c2cc3cnc(N)nc3nc2NC(=O)NC(C)(C)C)c1` [PD166866], in the test on H9 primed hESCs (in the presence of XGY and activin A, end of P1), the “induction of CD75/SUSD2 double-positive cells in primed hESCs” value was “heterogeneous induction”. Also, the “concentration effective to maintain expression of naïve-specific transcripts (titration)” value in the test with H9-naïve hESCs [4] (in XAV/Gö/Y, KLF17 and DNMT3L) worked out at 1 µM. Besides, the “sustaining CD75/SUSD2-positive cells over multiple passages” value with H9-naïve hESCs [2] was “robustly sustained”. Moreover, the “activity in maintaining OCT4-ΔPE-GFP reporter activity after passaging” value in test [3] (in the presence of ROCK inhibitor (Y) alone) is “showed activity”.
